In brackets after ≈: the same amount, converted by molar mass. Activity calls are given as the source filed them. The calls are words filed in the database; no cut-off is given here.
Legend:
[1] = tested on: Mycobacterium tuberculosis; experiment: Antimicrobial activity against Mycobacterium tuberculosis H37Rv by alamar blue assay; assay type: functional
[2] = tested on: Mycobacterium tuberculosis; experiment: Antimicrobial activity against Mycobacterium tuberculosis SRMV2.6 H37Rv by alamar blue assay; assay type: functional
[3] = tested on: Mycobacterium tuberculosis; experiment: Inhibition of Mycobacterium tuberculosis GuaB2 at 50 uM
[4] = Inhibition of Mycobacterium tuberculosis GuaB2
[5] = biological target: Inosine-5'-monophosphate dehydrogenase 2 (Homo sapiens) (UniProt P12268); experiment: Inhibition of human IMPDH2 at 10 uM
[6] = Octanol/water partition coefficient , logP of the compound; assay type: physicochemical
[7] = tested on: Mycobacterium tuberculosis; experiment: Antimicrobial activity against Mycobacterium tuberculosis H37Rv in presence of 0.08 to 5 ng/ml anhydrotetracycline-induced guaB2 gene silencing by alamar blue assay; assay type: functional, organism-based
Staphylococcus aureus = experiment: Growth inhibition of methicillin-resistant Staphylococcus aureus at 32 ug/ml; assay type: functional; conditions: read-out: GI
Escherichia coli = experiment: Growth inhibition of Escherichia coli at 32 ug/ml; assay type: functional; conditions: read-out: GI
Klebsiella pneumoniae = experiment: Growth inhibition of Klebsiella pneumoniae at 32 ug/ml; assay type: functional; conditions: read-out: GI
Pseudomonas aeruginosa = experiment: Growth inhibition of Pseudomonas aeruginosa at 32 ug/ml; assay type: functional; conditions: read-out: GI
Acinetobacter baumannii = experiment: Growth inhibition of Acinetobacter baumannii at 32 ug/ml; assay type: functional; conditions: read-out: GI
Candida albicans = experiment: Growth inhibition of Candida albicans at 32 ug/ml; assay type: functional; conditions: read-out: GI
Cryptococcus neoformans = experiment: Growth inhibition of Cryptococcus neoformans var. grubii at 32 ug/ml; assay type: functional; conditions: read-out: GI

Sequence of Inosine-5'-monophosphate dehydrogenase 2 (Homo sapiens) (P12268 2-514 limits assumed): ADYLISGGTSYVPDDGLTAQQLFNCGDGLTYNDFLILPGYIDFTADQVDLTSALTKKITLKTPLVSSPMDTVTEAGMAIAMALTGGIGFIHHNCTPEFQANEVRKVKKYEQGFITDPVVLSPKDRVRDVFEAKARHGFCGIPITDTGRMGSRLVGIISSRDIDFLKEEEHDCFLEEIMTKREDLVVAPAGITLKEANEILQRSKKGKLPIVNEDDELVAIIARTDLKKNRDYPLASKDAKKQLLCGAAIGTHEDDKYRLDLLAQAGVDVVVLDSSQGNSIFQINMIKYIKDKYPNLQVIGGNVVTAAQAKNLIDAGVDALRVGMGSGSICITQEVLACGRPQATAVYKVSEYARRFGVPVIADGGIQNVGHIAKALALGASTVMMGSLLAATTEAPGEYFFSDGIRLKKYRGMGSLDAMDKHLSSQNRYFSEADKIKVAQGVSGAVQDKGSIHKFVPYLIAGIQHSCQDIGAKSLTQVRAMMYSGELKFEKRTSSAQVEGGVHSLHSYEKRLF

## O=C(O)CCCC(=O)N1CCn2c(nnc2C(F)(F)F)C1
[1]
  MIC90: > 100 µM

## CC(C(=O)Nc1ccc2c(c1)COC2=O)c1ccc(-c2ccccc2)c(F)c1 (configuration not stated)
[1]
  MIC90: > 100 µM

## O=C(COc1ccc2ccccc2c1)Nc1ccc2c(c1)COC2=O
[1]
  MIC90: > 100 µM

## CC(C(=O)Nc1ccc2c(c1)COC2=O)c1cccc(C(=O)c2ccccc2)c1 (configuration not stated)
[1]
  MIC90: 100 µM (≈ 38.5 µg/mL)

## O=C(Cn1c(-c2ccncc2)nc2cc(Br)cnc21)Nc1cccc2ccccc12
[1]
  MIC90: > 100 µM

## N#Cc1ccc(Cn2nncc2COc2cccc3ccccc23)cc1
[1]
  MIC90: 100 µM (≈ 34 µg/mL)
[2]
  MIC90: > 100 µM
[3]
  inhibition: 43.5%
[4]
  IC50: 175 µM
[5]
  inhibition: 14.8%

## CC(=O)c1ccc(OCC(=O)Nn2c(C)nc3sccc3c2=O)cc1
[1]
  MIC90: > 100 µM

## O=C(O)/C=C\C(=O)NC12CC3CC(CC(C3)C1)C2
[1]
  MIC90: > 100 µM

## COc1cc(/C=C/C(=O)c2cccc(OCC(=O)Nc3ccc4c(c3)COC4=O)c2)cc(OC)c1OC
[1]
  MIC90: > 100 µM

## COc1cc(NC(=O)Nn2c(C)nc3sccc3c2=O)cc(OC)c1
[1]
  MIC90: > 100 µM

## COc1cccc(Cn2nncc2COc2ccc3ccccc3c2)c1
[1]
  MIC90: 50 µM (≈ 17.3 µg/mL)
[2]
  MIC90: > 100 µM
[3]
  inhibition: 52.4%
[5]
  inhibition: 24.9%

## COc1ccc(NC(=O)Nc2ccc(-c3cnco3)cc2)cc1
[1]
  MIC90: > 100 µM

## CC1CC(NS(=O)(=O)c2ccc(NC(=O)CCC(=O)O)cc2)=NO1 (configuration not stated)
[1]
  MIC90: > 100 µM

## Cc1ccc(NC(=O)Nn2c(C)nc3sccc3c2=O)cc1Cl
[1]
  MIC90: > 100 µM

## COc1ccc(-c2ccc(NC(=O)CCC(=O)O)cc2)cn1
[1]
  MIC90: > 100 µM

## O=C(O)/C=C\C(=O)NCc1ccccc1
[1]
  MIC90: > 100 µM

## N#Cc1ccc(Cn2nncc2COc2ccc3ccccc3c2)cc1
[1]
  MIC90: > 100 µM

## COC(=O)c1ccc(OCC(=O)Nc2ccc3c(c2)COC3=O)cc1
[1]
  MIC90: > 100 µM

## O=C1OCc2cc(NC(=O)c3cccnc3Cl)ccc21
[1]
  MIC90: > 100 µM

## O=C(COc1ccc(C(=O)/C=C/c2cccs2)cc1)Nc1ccc2c(c1)COC2=O
[1]
  MIC90: > 100 µM

## Fc1ccccc1NC(=S)Nc1ccc(-c2ccccc2Cl)cn1
[1]
  MIC90: > 100 µM

## O=C(CNc1ccc(F)cc1)Nc1ccc2c(c1)COC2=O
[1]
  MIC90: > 100 µM

## CC(C(=O)Nc1ccc2c(c1)COC2=O)c1ccc(C(=O)c2ccccc2)cc1 (configuration not stated)
[1]
  MIC90: 100 µM (≈ 38.5 µg/mL)
[2]
  MIC90: 100 µM (≈ 38.5 µg/mL)
[3]
  inhibition: 95.2%
[4]
  IC50: 6.2 µM
[6]
  logP: 3.67
[7]
  Activity: Active
[5]
  inhibition: 23%
Staphylococcus aureus
  inhibition of growth at 32 µg/mL: 25.2%
Escherichia coli
  inhibition of growth at 32 µg/mL: -2.97%
Klebsiella pneumoniae
  inhibition of growth at 32 µg/mL: 15.6%
Pseudomonas aeruginosa
  inhibition of growth at 32 µg/mL: 3.08%
Acinetobacter baumannii
  inhibition of growth at 32 µg/mL: 1.89%
Candida albicans
  inhibition of growth at 32 µg/mL: 5.25%
Cryptococcus neoformans
  inhibition of growth at 32 µg/mL: -94.7%

## COc1ccc2[nH]c(S(=O)(=O)Cc3c(C)c(OC)c(C)c[n+]3[O-])nc2c1
[1]
  MIC90: > 100 µM

## O=C(O)CCC(=O)NCc1ccc2c(c1)OCO2
[1]
  MIC90: > 100 µM

## COc1cc(C(=O)/C=C/c2cc(OC)c(OC)c(OC)c2)ccc1OCC(=O)Nc1ccc2c(c1)COC2=O
[1]
  MIC90: > 100 µM

## O=C(COc1ccc(C(=O)/C=C/c2ccc([N+](=O)[O-])cc2)cc1)Nc1ccc2c(c1)COC2=O
[1]
  MIC90: > 100 µM

## Cc1nnc(-c2ccc(OCc3cnnn3Cc3ccc(C#N)cc3)cc2)o1
[1]
  MIC90: > 100 µM

## COc1c(C)c2c(c(O)c1C/C=C(\C)CCC(=O)N[C@@H](C)c1ccccc1)C(=O)OC2
[1]
  MIC90: > 100 µM

## COc1cccc(Cn2nncc2COc2ccc(-c3nnc(C)o3)cc2)c1
[1]
  MIC90: 50 µM (≈ 18.9 µg/mL)
[2]
  MIC90: 100 µM (≈ 37.7 µg/mL)
[3]
  inhibition: 35%
[5]
  inhibition: 0.1%
Staphylococcus aureus
  inhibition of growth at 32 µg/mL: 5.5%
Escherichia coli
  inhibition of growth at 32 µg/mL: -7.43%
Klebsiella pneumoniae
  inhibition of growth at 32 µg/mL: -4.35%
Pseudomonas aeruginosa
  inhibition of growth at 32 µg/mL: 1.44%
Acinetobacter baumannii
  inhibition of growth at 32 µg/mL: -15.3%
Candida albicans
  inhibition of growth at 32 µg/mL: 3.07%
Cryptococcus neoformans
  inhibition of growth at 32 µg/mL: -59.4%

## COc1ccccc1NC(=O)Nn1c(C)nc2sccc2c1=O
[1]
  MIC90: > 100 µM

## O=C(O)CCC(=O)NCC1(N2CCOCC2)CCCCCC1
[1]
  MIC90: > 100 µM

## Cc1nnc(-c2ccc(OCc3cnnn3Cc3ccc(Cl)cc3Cl)cc2)o1
[1]
  MIC90: > 100 µM

## COc1ccc(NC(=O)Nn2c(C)nc3ccsc3c2=O)cc1
[1]
  MIC90: > 100 µM

## Cc1cc(OCC(=O)Nc2ccc3c(c2)COC3=O)ccc1[N+](=O)[O-]
[1]
  MIC90: > 100 µM

## O=C(O)CNC(=O)[C@@H]1C[C@H]1c1ccccc1
[1]
  MIC90: > 100 µM

## Cc1ccc(CNC(=O)/C=C\C(=O)O)cc1
[1]
  MIC90: > 100 µM

Source: ChEMBL document CHEMBL4190383, “Hit discovery of Mycobacterium tuberculosis inosine 5'-monophosphate dehydrogenase, GuaB2, inhibitors” (Bioorg Med Chem Lett, 2018)
